Data from patent US20230126298A1, “DEUYERATED TRYPTAMINE DERIVATIVE FORMULATIONS AND METHODS OF USE” (priority 2020, published 2023).

Assays:
[1] = Metabolic stability in rat liver microsomes (RLM); conditions: for RLM, metabolized or not (R / NR): last time point 120 min; for RLM, % (half-life as % vs. the related nondeuterated compound): values in square brackets are within 10% (assay's accuracy), no deuteration effect; for metabolic stability in RLM, in words: deuterated vs. comparator
[2] = biological target: T1, hrMAO-A (Homo sapiens, UniProt P21397); assay: Metabolic stability in the presence of hrMAO-A; assay type: in vitro ADME; conditions: for MAO, metabolized or not (R / NR): last time point 120 min
T1 construct: purchased XenoTech Lot #8213001
T1 sequence (P21397 1-527): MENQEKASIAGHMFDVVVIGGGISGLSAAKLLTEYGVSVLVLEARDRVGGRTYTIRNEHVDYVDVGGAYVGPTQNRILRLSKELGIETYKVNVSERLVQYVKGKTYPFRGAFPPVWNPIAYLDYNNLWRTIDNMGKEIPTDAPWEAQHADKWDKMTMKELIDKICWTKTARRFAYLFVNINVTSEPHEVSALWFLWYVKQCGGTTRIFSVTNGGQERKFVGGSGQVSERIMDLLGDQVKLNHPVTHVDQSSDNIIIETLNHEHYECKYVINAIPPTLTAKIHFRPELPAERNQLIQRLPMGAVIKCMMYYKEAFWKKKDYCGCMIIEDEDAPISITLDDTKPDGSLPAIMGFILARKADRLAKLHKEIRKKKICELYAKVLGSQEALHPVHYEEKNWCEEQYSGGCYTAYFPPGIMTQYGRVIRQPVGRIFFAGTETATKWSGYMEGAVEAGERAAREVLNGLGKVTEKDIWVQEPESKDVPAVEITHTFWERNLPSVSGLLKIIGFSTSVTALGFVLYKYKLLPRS
Protocol: The reaction mixture was prepared as described below. The co-dosed TAs were added into the reaction mixture at a final concentration of 1 microM each. The positive control, kynuramine (25 microM), was run simultaneously with the TAs in a separate reaction. The reaction mixture (without TAs or kynuramine) was equilibrated in a shaking water bath at 37° C. for 5 minutes. The reaction was initiated by the addition of the TAs or kynuramine, and the mixture was incubated in a shaking water bath at 37° C. Aliquots (100 microL) of the TA reaction mixture were withdrawn at 0, 5, 10, 20, 30, 60, and 120 minutes. Aliquots (100 microL) of the positive control reaction mixture were withdrawn at 0 and 30 minutes. TA and kynuramine samples were immediately combined with 100 microL of ice-cold 100% MeCN containing 0.1% formic acid and IS to terminate the reaction. The samples were then mixed and centrifuged to precipitate proteins. All TA samples were assayed by LC-HRAMS. The PARR (analyte to IS) at each time point was compared to the PARR at time 0 to determine the percent remaining at each time point. Reaction composition: hrMAO 0.02 mg/mL; Potassium Phosphate, pH 7.4 100 mM; Magnesium Chloride 5 mM; Test Articles (each) 1 microM.

[3] = Blood-to-plasma ratio (BPR), drug in brain and plasma of rats; assay type: in vivo; conditions: rat, % change vs. non-deuterated material
Protocol: (§1) The key PK parameters (presented as a % change vs. non-deuterated materials) are presented in Table 3 to include half-life (T1/2), area under the curve (AUC), bioavailability (F) and blood-to-plasma ration (BPR). Pharmacokinetics of the deuterated tryptamines was studied in rats. In a typical experiment, run as a cassette dosing, two groups of 5 Wistar female rats (200-250 g) with surgically inserted jugular vein catheter (Charles River, Andover, Mass.) were fasted for 12 h and then administered 5 mg/kg of the deuterated and 5 mg/kg of the related non-deuterated analog, by oral gavage or via a catheter for each group. At time points 0, 15, 30, 60 min, and 2, 4, 8, and 24 h, the resulting plasma was analyzed for the parent molecule using LC/MS spectroscopy. Two separate groups of 5 animals were used for determining blood-to-plasma ratio (BPR). Each group was sacrificed at time points 15 and 30 min, respectively, and the concentration of the parent drug was determined in the […] and plasma by LC/MS spectroscopy.

[4] = PK study in rats, cassette dosing, oral gavage or catheter; assay type: in vivo; conditions: rat, 5 mg/kg, % change vs. non-deuterated material; for Deuterium kinetic isotope effect (% change) F: bioavailability
Protocol: as §1

[5] = oral; cited from earlier work

Structure (SMILES): CCN(CC)CCc1c[nH]c2cccc(OC)c12
- RLM, metabolized or not (R / NR) ([1]; RLM): R

Structure (SMILES): CN(C)CCc1c[nH]c2ccc(O)cc12 [reference compound]
- RLM, metabolized or not (R / NR) ([1]; RLM): R
- MAO, metabolized or not (R / NR) ([2]; MAO-A): R

Structure (SMILES): CCN(C)CCc1c[nH]c2ccccc12 [reference compound]
- RLM, metabolized or not (R / NR) ([1]; RLM): R
- MAO, metabolized or not (R / NR) ([2]; MAO-A): R

Structure (SMILES): CCN(CC)CCc1c[nH]c2ccc(OC)cc12
- RLM, metabolized or not (R / NR) ([1]; RLM): R

Structure (SMILES): COc1cccc2[nH]cc(CCN(C)C)c12 [reference compound]
- RLM, metabolized or not (R / NR) ([1]; RLM): R
- MAO, metabolized or not (R / NR) ([2]; MAO-A): R

Structure (SMILES): [2H]C([2H])(c1c[nH]c2cccc(OC)c12)C([2H])([2H])N(C)C
- RLM, % (half-life as % vs. the related nondeuterated compound) ([1]; RLM): 190%

Structure (SMILES): CN(C)CCc1c[nH]c2ccccc12 [DMT, reference compound]
- % Remaining of Initial 0 min ([1]; RLM, Table 2): 100%
- % Remaining of Initial 20 min ([1]; RLM, 20 min, Table 2): 41.0%
- % Remaining of Initial 0 min ([2]; hrMAO-A, Table 3): 100%
- Half-life ([2]; hrMAO-A, Table 3): 27.2 min

Structure (SMILES): CNCCc1c[nH]c2cccc(O)c12 [reference compound]
- RLM, metabolized or not (R / NR) ([1]; RLM): R
- MAO, metabolized or not (R / NR) ([2]; MAO-A): R

Structure (SMILES): CC(C)NCCc1c[nH]c2ccccc12
- RLM, metabolized or not (R / NR) ([1]; RLM): R

Structure (SMILES): CCNCCc1c[nH]c2cccc(O)c12
- RLM, metabolized or not (R / NR) ([1]; RLM): R

Structure (SMILES): COc1ccc2[nH]cc(CCN(C)C)c2c1 [reference compound]
- RLM, metabolized or not (R / NR) ([1]; RLM): R
- MAO, metabolized or not (R / NR) ([2]; MAO-A): R

Structure (SMILES): [2H]C([2H])(NC)C([2H])([2H])c1c[nH]c2cccc(O)c12
- RLM, % (half-life as % vs. the related nondeuterated compound) ([1]; RLM): 160%

Structure (SMILES): [2H]C([2H])(c1c[nH]c2ccc(OC)cc12)C([2H])([2H])N(CC)CC
- RLM, % (half-life as % vs. the related nondeuterated compound) ([1]; RLM): [95] %

Structure (SMILES): [2H]c1[nH]c2c([2H])c([2H])c([2H])c([2H])c2c1C([2H])([2H])C([2H])([2H])N(C([2H])([2H])[2H])C([2H])([2H])[2H] [DMT-d15]
- metabolic stability in RLM, in words [1]: no improvement in half-life

Structure (SMILES): [2H]c1ccc2[nH]c([2H])c(CCN([2H])CC)c2c1O
- RLM, metabolized or not (R / NR) ([1]; RLM): R

Structure (SMILES): CCN(C)CCc1c[nH]c2ccc(O)cc12 [reference compound]
- RLM, metabolized or not (R / NR) ([1]; RLM): R
- MAO, metabolized or not (R / NR) ([2]; MAO-A): R

Structure (SMILES): CCN(C)CCc1c[nH]c2ccc(OC)cc12 [reference compound]
- RLM, metabolized or not (R / NR) ([1]; RLM): R
- MAO, metabolized or not (R / NR) ([2]; MAO-A): R

Structure (SMILES): CCNCCc1c[nH]c2ccccc12 [reference compound]
- RLM, metabolized or not (R / NR) ([1]; RLM): R
- MAO, metabolized or not (R / NR) ([2]; MAO-A): R

Structure (SMILES): [2H]C([2H])(Cc1c[nH]c2cccc(O)c12)N(C)C [PI-α,α-d2]
- Deuterium kinetic isotope effect (% change) BPR, 15 min [3]: 100%
- Deuterium kinetic isotope effect (% change) BPR, 30 min [3]: 150%
- Deuterium kinetic isotope effect (% change) AUC [4]: 75%
- Deuterium kinetic isotope effect (% change) T1/2 [4]: 50%
- Deuterium kinetic isotope effect (% change) F [4]: 45%

Structure (SMILES): CCN(CC)CCc1c[nH]c2ccccc12
- RLM, metabolized or not (R / NR) ([1]; RLM): R

Structure (SMILES): C=CCNCCc1c[nH]c2ccccc12
- RLM, metabolized or not (R / NR) ([1]; RLM): R

Structure (SMILES): CCN(CC)CCc1c[nH]c2ccc(O)cc12
- RLM, metabolized or not (R / NR) ([1]; RLM): R

Structure (SMILES): CCN(C)CCc1c[nH]c2cccc(OC)c12 [reference compound]
- RLM, metabolized or not (R / NR) ([1]; RLM): R
- MAO, metabolized or not (R / NR) ([2]; MAO-A): R

Structure (SMILES): [2H]C([2H])(NCC)C([2H])([2H])c1c[nH]c2cccc(O)c12
- RLM, % (half-life as % vs. the related nondeuterated compound) ([1]; RLM): [94] %

Structure (SMILES): C=CCN(CC=C)CCc1c[nH]c2ccccc12
- RLM, metabolized or not (R / NR) ([1]; RLM): R

Structure (SMILES): COc1cc(CCNCc2ccccc2OC)c(OC)cc1Cl [2C-C-NBOMe, 2-(4-Chloro-2,5-dimethoxyphenyl)-N-[(2-methoxyphenyl)methyl]ethan-1-amine]
- orally active dose [5]: ≥ 25 µg

Structure (SMILES): [2H]C([2H])(NCC)C([2H])([2H])c1c[nH]c2ccccc12
- MAO, % (half-life as % vs. the related nondeuterated compound) ([2]; MAO-A, values in square brackets are within 10% (assay's accuracy), no deuteration effect): 140%

Structure (SMILES): [2H]C([2H])(Cc1c[nH]c2ccc(OC)cc12)N(C)C [5-MeO-DMT-α,α-d2]
- Deuterium kinetic isotope effect (% change) BPR, 15 min [3]: 120%
- Deuterium kinetic isotope effect (% change) BPR, 30 min [3]: 180%
- Deuterium kinetic isotope effect (% change) AUC [4]: 60%
- Deuterium kinetic isotope effect (% change) T1/2 [4]: 30%
- Deuterium kinetic isotope effect (% change) F [4]: 200%

Structure (SMILES): [2H]C([2H])(c1c[nH]c2cccc(O)c12)C([2H])([2H])N(C(C)C)C(C)C
- RLM, % (half-life as % vs. the related nondeuterated compound) ([1]; RLM): [97] %

Structure (SMILES): [2H]C([2H])([2H])N(C([2H])([2H])[2H])C([2H])([2H])C([2H])([2H])c1c[nH]c2ccccc12 [DMT-d10]
- % Remaining of Initial 0 min ([1]; RLM, Table 2): 100%
- % Remaining of Initial 0 min ([1]; RLM, Table 4 (d8 and d10 analogs)): 100%
- % Remaining of Initial 10 min ([1]; RLM, 10 min, Table 4): 56.0%
- metabolic stability in RLM, in words [1]: Further enhancement of metabolic stability
- metabolism in the MAO-A enzymatic assay, in words [2]: superiority
- % Remaining of Initial 0 min ([2]; hrMAO-A, Table 3): 100%
- % Remaining of Initial 0 min ([2]; hrMAO-A, Table 5 (d8 and d10 analogs)): 100.0%
- % Remaining of Initial 5 min ([2]; hrMAO-A, 5 min, Table 5): 99.0%
- Half-life ([2]; hrMAO-A, Table 3): > 120 min
- Half-life ([2]; hrMAO-A, Table 5): > 120 min

Structure (SMILES): [2H]C([2H])(c1c[nH]c2ccccc12)C([2H])([2H])N(C)C [DMT-d4]
- % Remaining of Initial 0 min ([1]; RLM, Table 2): 100%
- % Remaining of Initial 0 min ([2]; hrMAO-A, Table 3): 100%
- Half-life ([2]; hrMAO-A, Table 3): > 120 min

Structure (SMILES): [2H]C([2H])(Cc1c[nH]c2ccccc12)N(C)C [DMT-d2]
- % Remaining of Initial 0 min ([1]; RLM, Table 2): 100%
- % Remaining of Initial 60 min ([1]; RLM, 60 min, Table 2): 32.0%
- % Remaining of Initial 0 min ([2]; hrMAO-A, Table 3): 100%
- % Remaining of Initial 60 min ([2]; hrMAO-A, 60 min, Table 3): 76.0%
- Half-life ([2]; hrMAO-A, Table 3): > 120 min

Structure (SMILES): CC(C)N(CCc1c[nH]c2cccc(O)c12)C(C)C
- RLM, metabolized or not (R / NR) ([1]; RLM): R

Structure (SMILES): CC(C)NCCc1c[nH]c2cccc(O)c12
- RLM, metabolized or not (R / NR) ([1]; RLM): R

Structure (SMILES): CNCCc1c[nH]c2ccccc12 [reference compound]
- RLM, metabolized or not (R / NR) ([1]; RLM): R
- MAO, metabolized or not (R / NR) ([2]; MAO-A): R

Structure (SMILES): [2H]C([2H])([2H])C([2H])([2H])NC([2H])([2H])C([2H])([2H])c1c[nH]c2cccc(O)c12
- RLM, % (half-life as % vs. the related nondeuterated compound) ([1]; RLM): [93] %
